Read-outs that look alike come from different tables or passages of the source.
Key:
paddy rice [1] = assay: Test Example 1: pot test on selectivity, inhibition of paddy rice; type: in vivo; conditions: for inhibition at 750 g/ha / inhibition at 1500 g/ha / inhibition at 3000 g/ha / inhibition at 6000 g/ha / inhibition at 9000 g/ha: Oryza sativa, 720 h, dry weight 30 days after treatment; for inhibition at 750 g/ha: 75 g/10 are; for inhibition at 1500 g/ha: 150 g/10 are; for inhibition at 3000 g/ha: 300 g/10 are; for inhibition at 6000 g/ha: 600 g/10 are; for inhibition at 9000 g/ha: 900 g/10 are
Procedure, shortened: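 Alluvial paddy soil in pots sown with Echinochloa crus-galli var. oryzicola (50 seeds) and paddy rice (30 seeds), submerged about 1 cm. Dry weights taken 30 days after chemical treatment; inhibition rate calculated relative to untreated area.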

paddy rice [2] = assay: whole plant or invertebrate; type: in vivo, paddy rice (Asahi species); conditions: Oryza sativa, 720 h, granule, 30 days; for inhibition at 1000 g/ha: 100 g/10 are; for inhibition at 3000 g/ha: 300 g/10 are; for inhibition at 9000 g/ha: 900 g/10 are
Procedure, shortened: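 Barnyardgrass seeded in flooded alluvial paddy soil (~3 cm water) in concrete pots, with 2.5-leaf Asahi rice transplanted before weed emergence. Granules applied at weed 1-leaf or 5-leaf stage. Dry weights measured 30 days after treatment; inhibition rate calculated versus untreated area.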

Umbrella plant = assay: Test Example 5: Wagner pot test, herbicidal effect on umbrella plant; type: in vivo; conditions: 20 days after application
Procedure, shortened: (§1)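 Paddy soil in 1/7500 are Wagner pots flooded about 2 cm, transplanted rice (2–3-leaf stage), sown bulrush, naturally emerging other weeds. Emulsion applied dropwise to water surface at predetermined concentration when weeds reached defined leaf age. Herbicidal effect and rice injury scored by index 20 days after application, three replicates.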

paddy rice [3] = assay: Test Example 4: field test in submerged directly seeded paddy field, paddy rice; type: in vivo, paddy rice (Asahi species); conditions: Oryza sativa, 504 h; 300 g/10 are, emulsion, 2- to 3-leaf stage, 21 days after application
Procedure, shortened: (§2)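 Field plot of 10 m² with Echinochloa seeds sown at puddling and water kept 3–5 cm deep; emerged paddy rice (Asahi) was seeded 3 days later. The emulsion was sprayed uniformly when both species reached the 2–3-leaf stage, and results were assessed 21 days after application.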

[4] = tested on: Echinochloa crus-galli var. oryzicola; assay: Test Example 4: field test in submerged directly seeded paddy field, Echinochloa crus-galli var. oryzicola; type: in vivo; conditions: Echinochloa crus-galli, 504 h; 300 g/10 are, emulsion, 2- to 3-leaf stage, 21 days after application; read-out: Inhibition (%) of E. crus-galli var. oryzicola
Procedure, shortened: as §2

[5] = tested on: Echinochloa crus-galli var. oryzicola; assay: Test Example 1: pot test on selectivity, inhibition of Echinochloa crus-galli var. oryzicola; type: in vivo; conditions: for inhibition at 750 g/ha / inhibition at 1500 g/ha / inhibition at 3000 g/ha / inhibition at 6000 g/ha / inhibition at 9000 g/ha: Echinochloa crus-galli, 720 h, dry weight 30 days after treatment; for inhibition at 750 g/ha: 75 g/10 are; for inhibition at 1500 g/ha: 150 g/10 are; for inhibition at 3000 g/ha: 300 g/10 are; for inhibition at 6000 g/ha: 600 g/10 are; for inhibition at 9000 g/ha: 900 g/10 are
Procedure, shortened: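 Paddy soil pots were sown with 50 barnyard grass and 30 rice seeds under about 1 cm flooding, and emulsion at set concentrations was dripped in at the weed's 1-leaf and 5-leaf stages. After 30 days, dry weights of weed and rice gave inhibition versus untreated.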

Acute oral toxicity = conditions: in vivo, SD-strain rat
Procedure: Acute oral toxicity LD50 value of the compound of the invention measured on SD-strain rat is more than 2,000 mg/Kg for any of the trans-form, cis-form and a mixture thereof in equal amount and further acute fish toxicity TLm value (as defined by Official Standard issued from Ministry of Agriculture & Forestry) measured on young carp is more than 20 ppm for any of the above compounds.

Dopatrium junceum = assay: Test Example 5: Wagner pot test, herbicidal effect on Dopatrium junceum; type: in vivo
Procedure, shortened: as §1

[6] = 1-leaf stage, read-out: Inhibition (%) by treatment at 1-leaf stage, paddy rice
[7] = 5-leaf stage, read-out: Inhibition (%) by treatment at 5-leaf stage, paddy rice
[8] = trans-form, cis-form and mixtures compared
[9] = rice at 3.5 leaves stage, read-out: Inhibition (%) by treatment at 1-leaf stage of E. crus-galli var. oryzicola, paddy rice
[10] = rice at 7 leaves stage, read-out: Inhibition (%) by treatment at 5-leaf stage of E. crus-galli var. oryzicola, paddy rice
[11] = 1-leaf stage, read-out: Inhibition (%) by treatment at 1-leaf stage, E. crus-galli var. oryzicola
[12] = 5-leaf stage, read-out: Inhibition (%) by treatment at 5-leaf stage, E. crus-galli var. oryzicola

C/C=C/COc1ccc(NC(=O)N(C)C)cc1 [trans-form, 3-(4-trans-crotyloxyphenyl)-1,1-dimethyl urea]
inhibition at 750 g/ha (paddy rice [1]; [6]): 0%
inhibition at 750 g/ha (paddy rice [1]; [7]): 0%
inhibition at 1500 g/ha (paddy rice [1]; [6]): 0%
inhibition at 1500 g/ha (paddy rice [1]; [7]): 0%
inhibition at 3000 g/ha (paddy rice [1]; [6]): 0%
inhibition at 3000 g/ha (paddy rice [1]; [7]): 0%
inhibition at 6000 g/ha (paddy rice [1]; [6]): 0%
inhibition at 6000 g/ha (paddy rice [1]; [7]): 0%
inhibition at 9000 g/ha (paddy rice [1]; [6]): 2%
inhibition at 9000 g/ha (paddy rice [1]; [7]): 0%
selectivity to paddy rice (paddy rice [1]; [8]): equivalent
inhibition at 1000 g/ha (paddy rice [2]; [9]): 0%
inhibition at 1000 g/ha (paddy rice [2]; [10]): 0%
inhibition at 3000 g/ha (paddy rice [2]; [9]): 0%
inhibition at 3000 g/ha (paddy rice [2]; [10]): 0%
inhibition at 9000 g/ha (paddy rice [2]; [9]): 0%
inhibition at 9000 g/ha (paddy rice [2]; [10]): 0%
Weed kill degree, Umbrella plant (Umbrella plant; 300 g/10a, leaf age 2 (first group of columns)): 5 (100)
Weed kill degree, Umbrella plant (Umbrella plant; 300 g/10a, leaf age 2 (second group of columns)): 5 (100)
Weed kill degree, Umbrella plant (Umbrella plant; 600 g/10a, leaf age 2 (first group of columns)): 5 (100)
Weed kill degree, Umbrella plant (Umbrella plant; 600 g/10a, leaf age 2 (second group of columns)): 5 (100)
inhibition at 3000 g/ha (paddy rice [3]): 0%
inhibition at 3000 g/ha [4]: 100%
inhibition at 750 g/ha [5, 11]: 96%
inhibition at 750 g/ha [5, 12]: 86%
inhibition at 1500 g/ha [5, 11]: 100%
inhibition at 1500 g/ha [5, 12]: 100%
inhibition at 3000 g/ha [5, 11]: 100%
inhibition at 3000 g/ha [5, 12]: 100%
inhibition at 6000 g/ha [5, 11]: 100%
inhibition at 6000 g/ha [5, 12]: 100%
inhibition at 9000 g/ha [5, 11]: 100%
inhibition at 9000 g/ha [5, 12]: 100%
activity for killing Echinochloa spp. [5, 8]: equivalent
LD50 (Acute oral toxicity): > 2000 mg/kg
Weed kill degree, Dopatrium junceum (Dopatrium junceum; 300 g/10a, leaf age 2, 20 days after application): 5 (100)
Weed kill degree, Dopatrium junceum (Dopatrium junceum; 300 g/10a, leaf age 3, 20 days after application): 5 (100)
Weed kill degree, Dopatrium junceum (Dopatrium junceum; 600 g/10a, leaf age 2, 20 days after application): 5 (100)
Weed kill degree, Dopatrium junceum (Dopatrium junceum; 600 g/10a, leaf age 3, 20 days after application): 5 (100)

Source: US4255183A, “Substituted phenyl urea and herbicides for use in paddy field” (Hokko Chemical Industry Co., Ltd., priority 1977, dated 1981)
